Assay results published in patent publication US20040171090A1, “Anti-tumor antigen against HTLV-I tumor or antigen epitope thereof” (priority 2001, published 2004).
Peptide text beside a SMILES is read from it.

Key:
[1] = test system: HTLV-I-specific CTL cell lines; conditions: for cytotoxic activity of HTLV-I-specific CTL cell lines against target cells sensitized with peptide (FIG. 6): 15-24 mer peptides 10 μM, 37° C. 1 hour, release assay 6 hours; for cytotoxic activity of HTLV-I-specific CTL cell lines against target cells sensitized with peptide (FIG. 6) / cytotoxicity of long-term-cultured CTL cell lines against target cells sensitized with peptide (FIG. 7) / peptide concentration necessary to induce cytotoxic activity of the same extent as Tax 180-188: E/T 10; for cytotoxicity of long-term-cultured CTL cell lines against target cells sensitized with peptide (FIG. 7): peptides 10 μM; for peptide concentration necessary to induce cytotoxic activity of the same extent as Tax 180-188: G14 cells treated 1 hour with serially diluted peptide
[2] = test system: HTLV-I-infected tumor cells, FPM1-V1AX; test: Vaccine effect: splenic T cells of immunized nu/+ rats transferred to nu/nu rats given FPM1-V1AX, tumor volume; type: in vivo, rat; conditions: nu/+ rats immunized subcutaneously twice, two-week interval, 100 μg peptide and/or ISS-ODN

Molecule | cytotoxic activity of HTLV-I-specific CTL cell lines against target cells sensitized with peptide (FIG. 6) ([1]; G14 cells) | other results
Tax 17-40: partially overlapping synthetic peptide (15-24 mers), partial peptide in the Tax protein (VYVFGDCVQGDWCPISGGLCSARL) | low cytotoxic activity | –
Tax 33-56: partially overlapping synthetic peptide (15-24 mers), partial peptide in the Tax protein (GGLCSARLHRHALLATCPEHQITW) | low cytotoxic activity | –
CC[C@H](C)[C@H](NC(=O)[C@H](CCCNC(=N)N)NC(=O)[C@H](CCCCN)NC(=O)[C@H](Cc1ccc(O)cc1)NC(=O)[C@@H]1CCCN1C(=O)[C@@H](NC(=O)[C@H](CC(N)=O)NC(=O)[C@@H](NC(=O)[C@H](CC(C)C)NC(=O)[C@H](Cc1ccccc1)NC(=O)[C@H](C)N)[C@@H](C)O)C(C)C)C(=O)N[C@@H](CCC(=O)O)C(=O)N[C@@H](CCC(=O)O)C(=O)N[C@@H](CC(C)C)C(=O)N[C@@H](CC(C)C)C(=O)O [Tax 181-195] | effectively dissolve | cytotoxicity of long-term-cultured CTL cell lines against target cells sensitized with peptide (FIG. 7) ([1]; G14 cells): notably dissolved
LGAFLTNVP [Tax 179-187] | – | CTL sensitivity of target cells sensitized with 9 amino acid synthetic peptides (FIG. 8) ([1]; G14 cells, 9 mer peptides, same method as for the 15-24 mers): exhibited CTL sensitivity
5′-TGACTGTGAACGTTCGAGATGA-3′ [ISS-ODN] | – | suppression effect on tumor proliferation by splenic T cells from immunized rats (tumor volume, FIG. 12) [2]: not recognized
CC[C@H](C)[C@H](NC(=O)[C@H](CCCCN)NC(=O)[C@H](Cc1ccc(O)cc1)NC(=O)[C@H](CC(C)C)NC(=O)[C@H](CC(C)C)NC(=O)[C@H](CCC(=O)O)NC(=O)[C@H](CCC(=O)O)NC(=O)[C@@H](NC(=O)[C@H](CCCNC(=N)N)NC(=O)[C@H](CCCCN)NC(=O)[C@H](Cc1ccc(O)cc1)NC(=O)[C@@H]1CCCN1C(=O)[C@@H](NC(=O)[C@H](CC(N)=O)NC(=O)[C@@H](NC(=O)[C@H](CC(C)C)NC(=O)[C@H](Cc1ccccc1)NC(=O)[C@H](C)NC(=O)CNC(=O)[C@H](CC(C)C)NC(=O)[C@H](CCC(N)=O)NC(=O)CN)[C@@H](C)O)C(C)C)[C@@H](C)CC)C(=O)N[C@@H](CO)C(=O)N[C@@H](CC(C)C)C(=O)O [Tax 177-200] | effectively dissolve | cytotoxicity of long-term-cultured CTL cell lines against target cells sensitized with peptide (FIG. 7) ([1]; G14 cells): notably dissolved
Tax 97-120: partially overlapping synthetic peptide (15-24 mers), partial peptide in the Tax protein (TTPNIPPSFLQAMRKYSPFRNGYM) | low cytotoxic activity | –
Tax 81-104: partially overlapping synthetic peptide (15-24 mers), partial peptide in the Tax protein (QRTSKTLKVLTPPITHTTPNIPPS) | low cytotoxic activity | –
CC(C)C[C@H](NC(=O)[C@H](Cc1ccccc1)NC(=O)[C@H](C)N)C(=O)N[C@H](C(=O)N[C@@H](CC(N)=O)C(=O)N[C@H](C(=O)N1CCC[C@H]1C(=O)N[C@@H](Cc1ccc(O)cc1)C(=O)N[C@@H](CCCCN)C(=O)O)C(C)C)[C@@H](C)O [Tax 181-189] (H-AFLTNVPYK-OH; N-terminus and C-terminus assumed) | – | peptide concentration necessary to induce cytotoxic activity of the same extent as Tax 180-188 [1]: 1 µM
CC(C)C[C@H](NC(=O)[C@@H](N)Cc1ccccc1)C(=O)N[C@H](C(=O)N[C@@H](CC(N)=O)C(=O)N[C@H](C(=O)N1CCC[C@H]1C(=O)N[C@@H](Cc1ccc(O)cc1)C(=O)N[C@@H](CCCCN)C(=O)N[C@@H](CCCNC(=N)N)C(=O)O)C(C)C)[C@@H](C)O [Tax 182-190] (H-FLTNVPYKR-OH; N-terminus and C-terminus assumed) | – | peptide concentration necessary to induce cytotoxic activity of the same extent as Tax 180-188 [1]: 10 µM
